Laboratory results taken from article PMC7822874, “Chemoprotective antimalarials identified through quantitative high-throughput screening of Plasmodium blood and liver stage parasites” (Scientific Reports, 2021).
Values joined by “and” are separate entries in the source; they are usually repeats but may differ in a detail not shown here. Equal values may be shown once. Read-outs that look alike come from different tables or passages of the source.

Assays:
[1] = test system: T1, Plasmodium falciparum Dd2-attB (parental line), asexual blood stages; assay: microbe, parasite or virus in culture; design: species or system P. falciparum Dd2-attB in human erythrocytes; SYBR Green-I proliferation assay, Dd2-attB parental line, asexual blood stages; conditions: Plasmodium falciparum, DD2, Erythrocyte, 72 h, read-out: Calculated / Average Log AC50 (M), mean of replicates, 72 h (converted)
T1 construct: Dd2-attB, the isogenic parental line

[2] = test system: T1, Plasmodium falciparum Dd2-attB (parental line), asexual blood stages; assay: microbe, parasite or virus in culture; design: replicate k of 3 (each line is one of three independent assays; the three lines of one compound and parasite line follow each other); conditions: n = 1; for Individual replicates / Log AC50 (M): 72 h; for AC50: Plasmodium falciparum, DD2, 72 h, read-out: Individual replicates / Log AC50 (converted)
In short: (§1)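 Three independent runs, compound subset only; parental vs ScDHODH line compared by two-sided Student's t-test.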

[3] = test system: T2, Plasmodium falciparum Dd2-attB-ScDHODH (transgenic line expressing yeast DHODH), asexual blood stages; assay: organism not typed; design: replicate k of 3 (each line is one of three independent assays; the three lines of one compound and parasite line follow each other); conditions: 72 h, n = 1; for AC50: read-out: Individual replicates / Log AC50 (converted)
T2 construct: Dd2-attB-ScDHODH, the transgenic line that expresses yeast DHODH
In short: as §1

Structure (SMILES) | AC50 [1] [M] | further results
O=C1c2ccccc2C(=O)C1c1ccc(C(F)(F)F)cc1 [NCGC00510065-01] | 1.36e-05 | Individual replicates / Log AC50 (M) [2]: -4.7486 Log AC50 (M) (2×) and -5.0986 Log AC50 (M); Individual replicates / Log AC50 (M) [3]: -4.6986 Log AC50 (M) and -4.7486 Log AC50 (M); AC50 [3]: 17.8 µM
CC(C)(C)OC(=O)NC1CCN(c2cc(-c3ccc(Cl)cc3)[nH]n2)C1 (stereo not shown) [NCGC00490648-01] | 1.59e-05 | AC50 [2]: 11.3 µM; AC50 [3]: 10 µM
CN1CCN(C(=O)c2ccc(-c3cc(O)c4ncccc4c3)cc2)CC1 [NCGC00244524-01] | 1.04e-05 | Individual replicates / Log AC50 (M) [2]: -5.0486 Log AC50 (M) and -5.0986 Log AC50 (M); AC50 [2]: 15.9 µM; Individual replicates / Log AC50 (M) [3]: -5.0486 Log AC50 (M); AC50 [3]: 15.9 µM
Cc1cccc(CN2CCN(c3cnc4c(O)ccc(C(=O)O)c4c3)CC2)c1 [NCGC00249381-01] | 1.78e-05 | AC50 [2]: 15.9 µM
O=C(O)c1ccncc1Nc1nn(CCN2CCC(F)(F)CC2)c2ccc(F)cc12 [NCGC00384162-01] | 1.93e-05 | AC50 [2]: 15.9 µM; AC50 [3]: 17.8 µM
O=C(O)c1ccc(O)c2ncc(N3CCC(N4CCOCC4)CC3)cc12 [NCGC00249380-01] | 1.47e-05 | AC50 [3]: 17.8 µM
O=C(O)c1ccc(O)c2ncc(NC3CCNCC3)cc12 [NCGC00241037-01] | 1.72e-05 | AC50 [2]: 14.2 µM
CCOc1ccc(-c2[nH]c3c(C#N)cnn3c2NC2CCCCC2)cc1 [NCGC00119971-02] | 1.85e-05 | AC50 [2]: 15.9 µM
O=C(N[C@H]1CCN(c2cc(-c3ccc(Cl)cc3)[nH]n2)C1)c1ccccc1 [NCGC00489097-01] | 1.19e-05 | AC50 [2]: 6.33 µM
C=CC(=O)N1CCCN(c2cc(NCCC(=O)O)nc(-c3ccccn3)n2)CC1 [NCGC00420854-01] | 2.16e-05 | 
CCc1c(C)[nH]c2c(-c3cnn(-c4cc(CO)ccn4)c3)cnn2c1=O [NCGC00387307-02] | 4.84e-08 | 
O=C(O)CCNc1cc(N2CCc3ccccc3CC2)nc(-c2cccnc2)n1 [NCGC00351549-01] | 2.08e-05 | AC50 [3]: 15.9 µM
CCc1cccc(C)c1Nc1c(-c2ccc(N(C)C)cc2)nc2ncccn12 [NCGC00107648-03] | 1.93e-05 | AC50 [2]: 15.9 µM
COc1ccc(CNC(=O)c2nc([S+](=O)([O-])Cc3ccccc3)ncc2Cl)cc1 [NCGC00117170-03] | 1.31e-05 | AC50 [2]: 8.94 µM
Cn1cnc(-c2nccc3c(O)nc(OCCCC(F)(F)F)nc23)c1 [NCGC00381768-02] | 2.08e-05 | 
O=C(O)c1ccc(O)c2ncc(N3CCOCC3)cc12 [NCGC00241036-03] | 1.65e-05 | Individual replicates / Log AC50 (M) [2]: -4.8486 Log AC50 (M)
CN(C)CCCNC(=O)c1cccc(-c2cc(O)c3nccc(C(=O)O)c3c2)c1 [NCGC00247762-01] | 2.25e-05 | 
O=C(O)c1ccnc(-n2ncc(C(OCCN3CCCCC3)c3ccccc3Cl)c2-c2ccccc2Cl)c1 (stereo not shown) [NCGC00487469-01] | 1.85e-05 | 
Cc1nn2c(c1-c1ccnn1C(C)C)N(Cc1ccccc1)CCC2 [NCGC00500003-01] | 1.31e-05 | AC50 [2]: 8.94 µM
CC(C)(C)c1cc(N2CCC(NC(=O)c3ccccc3)C2)n[nH]1 (stereo not shown) [NCGC00488845-01] | 2.25e-05 | 
CN1CCCC1CCOC(c1cc2nccc(C(=O)O)c2[nH]1)c1ccccc1Cl (stereo not shown) [NCGC00421826-01] | 6.58e-06 | 
O=C(O)c1ccnc2cc(C(OCCN3CCCCC3)c3ccccc3Cl)[nH]c12 (stereo not shown) [NCGC00479257-01] | 1.89e-05 | 
COC(=O)c1ccc(N(CCN2CCC(F)(F)CC2)c2ccc(F)cc2)cn1 [NCGC00390009-01] | 1.53e-05 | 
O=C(NC1CCN(c2cc(-c3ccc(Cl)cc3)n[nH]2)C1)c1ccccc1 (stereo not shown) [NCGC00437928-03] | 1.85e-05 | AC50 [3]: 12.6 µM
O=C(O)c1ccc(O)c2ncc(N3CC(N4CCOCC4)C3)cc12 [NCGC00241761-01] | 1.72e-05 | 
CC1Cc2cc([S+](=O)([O-])NCc3ccc(N(C)C)cc3)ccc2N1C(=O)C1CCC1 (stereo not shown) [NCGC00124605-03] | 1.47e-05 | AC50 [3]: 15.9 µM

Structure (SMILES) | AC50 [1] [M] | further results
CCOC(=O)c1cnn(-c2cc(C(N)=O)ccn2)c1-c1ccc(OC)cc1 [NCGC00421836-01] | 6.33e-06 | 
O=C(NC1CCN(C(=O)c2cc(-c3ccccc3)n[nH]2)C1)c1ccccc1 (stereo not shown) [NCGC00492307-01] | 1.59e-05 | AC50 [3]: 14.2 µM
CC(OCCN1CCCCC1)c1cnn(-c2cc(C(=O)O)ccn2)c1-c1cccc(-c2ccccc2)c1 (stereo not shown) [NCGC00481287-01] | 1.36e-05 | AC50 [2]: 15.9 µM
Cc1cccc(C)c1Nc1c(-c2cccs2)nc2ncccn12 [NCGC00107923-03] | 5.03e-07 | 
COC(=O)CCNc1cc(N2CCCN(C(=O)C(C#N)=C(C)C)CC2)nc(-c2ccccn2)n1 [NCGC00420856-01] | 1.42e-05 | 
O=C(O)c1ccnc(-n2ncc(C(OCCN3CCCCC3)c3ccccc3)c2-c2ccccc2)c1 (stereo not shown) [NCGC00488202-01] | 2.12e-05 | 
Oc1ccc(COC2CCN(Cc3ccccc3)C2)c2cccnc12 (stereo not shown) [NCGC00183382-01] | 7.97e-06 | Individual replicates / Log AC50 (M) [2]: -5.2986 Log AC50 (M) and -5.1986 Log AC50 (M) and -4.7986 Log AC50 (M)
O=C(O)c1ccc(O)c2ncc(N3CCN(CCc4ccncc4)CC3)cc12 [NCGC00247761-01] | 1e-05 | AC50 [2]: 8.94 µM
CN1CCC(N2CCCC(CNC(=O)c3cccc(-c4cc(O)c5ncccc5c4)c3)C2)CC1 (stereo not shown) [NCGC00247748-01] | 1.85e-05 | 
CN(C)CCCN1CCCN(C(=O)c2cccc(-c3cc(O)c4ncccc4c3)c2)C1 [NCGC00247763-01] | 1.93e-05 | 
CCN(Cc1noc(CC(C)C)n1)C(=O)c1cnc(-c2ccccn2)nc1O [NCGC00438951-02] | 1.85e-05 | 
O=C(O)c1ccnc2cc(C(OCCN3CCC(F)(F)CC3)c3ccccc3Cl)[nH]c12 (stereo not shown) [NCGC00414992-02] | 1.53e-05 | 
O=C(O)c1ccc(O)c2ncc(N3CCCC3)cc12 [NCGC00189500-01] | 1.72e-05 | 
O=C(O)c1ccnc2cc(C(OCCCN3CCCC3)c3ccccc3Cl)[nH]c12 (stereo not shown) [NCGC00421827-01] | 4.48e-06 | 
OCc1cn(Cc2ccc(O)c3ncccc23)cn1 [NCGC00183377-01] | 2.08e-05 | 
COC(=O)c1ccnc(-c2cn(C)cn2)c1NC(=O)Cc1ccc(Cl)cc1 [NCGC00420786-01] | 1.42e-05 | Individual replicates / Log AC50 (M) [2]: -5.0486 Log AC50 (M) and -4.7486 Log AC50 (M); AC50 [2]: 17.8 µM
O=C(O)c1ccnc2c(O)cccc12 [NCGC00183785-01] | 2e-05 | 
Cn1ccnc1CCOC(c1cc2nccc(C(=O)O)c2[nH]1)c1ccccc1Cl (stereo not shown) [NCGC00421835-01] | 1.85e-05 | AC50 [2]: 15.9 µM
Cc1nn2c(c1-c1ccnn1C(C)C)N(CC1CC1)CCC2 [NCGC00499721-01] | 1.59e-05 | 
CN1CCCC1CCOC(c1cccc(-c2ccccc2)c1)c1cc2nccc(C(=O)O)c2s1 (stereo not shown) [NCGC00481397-01] | 1.42e-05 | 
O=C(O)c1ccc(O)c2ncc(N3CCCCC3)cc12 [NCGC00241752-01] | 1.65e-05 | 
CN1CCCCC1CCOC(c1cc2nccc(C(=O)O)c2[nH]1)c1ccccc1Cl (stereo not shown) [NCGC00479006-01] | 1.93e-05 | 
CN(C)CCCNC(=O)c1ccc(-c2cnc3c(O)ccc(C(=O)O)c3c2)cc1 [NCGC00189503-01] | 1.93e-05 | 
Oc1ccc(CNc2ccccc2Br)c2cccnc12 [NCGC00184890-01] | 1.78e-05 | 
COCCn1c(C)cc(O)c(C(c2ccc(OC)cc2)N2CCN(c3ccccc3)CC2)c1=O (stereo not shown) [NCGC00133311-02] | 9.29e-06 | 
CN(C)CCCNC(=O)c1ccccc1-c1cc(O)c2ncccc2c1 [NCGC00247753-01] | 1.47e-05 | 
